For data set [1], the system named is sheep of the Corriedale breed. In words: IOP in prednisolone-treated sheep after intravitreal tPA (Example 3, Protocol 1). Type of data set: in vivo. How it is done:
Methods. The inventors used recombinant human tissue plasminogen activator (rtPA) ([…]; Boehringer Ingelheim SA, Buenos Aires, Argentina) in two different protocols.
Protocol 1. 8 sheep of the Corriedale breed were treated with prednisolone acetate three times a day in both eyes, leading to elevated IOP. After one week, the animals received intravitreal injections of human recombinant tPA (100, 200, 500 and 1000 μg, two animals each) dissolved in balanced salt solution (BSS) in one eye. IOP was monitored for 19 more days while the animals continued to receive treatment with prednisolone. Periodic slit lamp examination was also performed.

The test system of a further data set is sheep. In words: Sheep given tPA or arginine concurrently with prednisolone (Example 3 Protocol 2, Example 4). As to conditions: 11 days. Format: in vivo. How it is done:
Protocol 2. In a second set of experiments, arginine was added to the BSS vehicle administered to the left eye to control for the relatively high concentration of the amino acid in the commercially available tPA lyophilisate. In these experiments all right eyes received 0.1 mg tPA, which concomitantly delivered 4.23 mg of arginine into the vitreous, and the left eye received this same amount of arginine, absent the tPA. On Day 1, prednisolone treatments were also begun simultaneously on both eyes.
Methods. In this experiment, the inventor sought to detect the effects of tPA treatment on prevention of steroid-induced IOP elevation. In 4 sheep tPA was injected in one eye (100 μg) and they were started on prednisolone acetate three times a day in both eyes. Animals were monitored for 11 days on continuous treatment.

In data set [2] the test system is MMP-1, MMP-2, MMP-9, MMP-13, PLAT, PAI-1 mRNA. The data set can be described thus: qRT-PCR gene expression in sheep TM and ciliary processes after tPA. Type of data set: in vivo. An excerpt:
Methods. Tissue Collection and Isolation of RNA. After animals were euthanized, eyes were immediately enucleated. Eyes were then opened anterior to the equator using a razor blade. The lens was removed from the anterior part, and the tissue was immersed in RNA stabilizing agent (RNAlater; Ambion, Carlsbad, CA) and placed at […] for transportation to the United States. Upon arrival in the United States, TM and ciliary processes (CP) were dissected on ice in the presence of RNA stabilizing agent as described previously. Dissected tissue was homogenized, and total RNA was extracted using TRIzol reagent (Gibco. Carlsbad, CA). Briefly, the tissue was homogenized in TRIzol, and chloroform was added to separate proteins from RNA. After centrifugation, the RNA-containing supernatant was aspirated. The RNA was precipitated with isopropanol, washed with 75% ethanol, treated with DNase, and column purified using a commercial kit (RNAeasy Mini Kit; Qiagen, Valencia, CA) in accordance with the manufacturer's instructions. RNA concentrations were determined with a spectrophotometer (Nanodrop; Thermo Scientific, Wilmington, DE) and the 260:280-nm absorbance ratio was calculated to determine RNA purity.
Quantitative Real-Time PCR (qRT-PCR) The RNA samples were reverse transcribed with random hexamers to cDNA using a reverse transcription kit (Quantitect; Qiagen) in accordance with the manufacturer's instructions. Quantitative RT-PCR was performed using a commercial kit (SYBR Green RT-PCR Reagents Kit; Applied Biosystems, Carlsbad, CA) in an ABI PRISM 7900HT sequence detector (Applied Biosystems). The sheep endogenous mRNA expression of matrix metalloproteinase-1 (MMP-1), matrix metalloproteinase-2 (MMP-2), matrix metalloproteinase-9 (MMP-9), matrix metalloproteinase-13 (MMP-13). and plasminogen activator tissue (PLAT) in the TM were investigated. Plasminogen activator inhibitor 1 (PA1-1) mRNA expression was measured in both TM and ciliary processes tissues. Relative quantification of gene expression was performed using the standard curve method. Mean threshold cycle (Ct) of the samples was compared among the groups by using the Ct. of 18S as an internal control. The DCt was calculated as the difference in Ct values derived from the target gene and the 18S gene. The DDCt was calculated as DCt of the normalized assayed genes in the treated samples minus DCt of normalized assayed genes in the naive control samples. Relative expression was calculated by the 2exp DD Ct formula.
In general terms: Real-time PCR tracks product formation cycle by cycle.

For data set [3], the system named is MMP-2, MMP-9, MMP-13 expression in HTM cells. The data set can be described thus: MMP expression in HTM cells (Examples 17, 18). The note with it: PA treated HTM cells; p<0.0001. Type of data set: cell-based, human.
Data set [4] has as its system Mmp-2, Mmp-9, Mmp-13 mRNA in angle ring tissues. The data set can be described thus: Mmp expression in Tg-MYOCY437H angle ring tissues (Example 19). Format: in vivo, mouse. How it is done: Eyes were flash frozen in liquid nitrogen after outflow facility determination and subsequently dissected on ice to obtain the angle ring tissues containing the TM, as previously described (Kumar, Shah et al. 2013). Dissected TM tissues were immersed in RNAlater solution (Invitrogen, Waltham, MA, USA) and then snap-frozen and stored at −80° C. until RNA extraction. Tissue collected was pooled (four eyes) and homogenized in TRIzol reagent for RNA isolation, per manufacturer's instructions (Life Technologies, Carlsbad, CA, USA). RNA concentration was determined with a Nanodrop ND-1000 Spectrophotometer (Thermo Scientific, Wilmington, DE, USA). cDNA was synthesized by using High-Capacity cDNA
Reverse Transcription Kit (Applied Biosystems, Waltham, MA, USA) according to manufacturer's protocol. Quantitative real-time PCR (qRT-PCR) was performed by using Green-2-Go qPCR Mastermix-ROX (Bio Basic, Amherst, NY, USA) on a QuantStudio 6 Flex thermal cycler (Applied Biosystems, Carlsbad, CA, USA). mRNA expression of Plat, Plait, Pai-1, Mmp-2, Mmp-9, and Mmp-13 in angle ring tissues was determined. Primers were designed by using Primer-BLAST (haps://www.ncbi.nlm.nih.gov/tools/primer-blast/index.cgi?LINK_LOC=BlastHome; in the public domain); primer sequences are listed in Table 2. Primer specificity was confirmed by agarose gel electrophoresis and multiple-sized amplification products were absent on inspection of melting curves. Target mRNA expression values were normalized to the expression levels of Rps11 (ribosomal protein S11). The relative fold change was calculated by using the ΔΔCt method (Hu, Wang et al. 2015). Outliers identified via the Thompson Tau test were removed from analysis.

The conditions of data set [5]: intravitreal; toxicity attributed to arginine in the commercial preparations; cited from earlier work.
Setting [6] is: 2 days after intravitreal protein.

Data on 1 substance can be found in patent US20240115672A1, “TREATMENT OF AN IOP CONDITION” (THE RESEARCH FOUNDATION FOR THE STATE UNIVERSITY OF NEW YORK, priority 2021, published 2024).

Regarding “tPA: recombinant human tissue plasminogen activator (ACTILYSE; Boehringer Ingelheim), enzymatically active”, the “dose dependence of the IOP effect” value in data set [1] (100, 200, 500 and 1000 μg, p>0.05 ANOVA) is given as “independent of the dose”. For the same substance, the ocular findings result in data set [1] (intravitreal tPA, unrelated to the dose injected) was “Transient injection and corneal clouding was observed in some eyes”. In addition, the “mean (±SD) IOP after tPA” value in data set [1] (within 24 h of intravitreal tPA, all doses tested (100-1000 μg), prednisolone continued, before 24.1 (±1.6)) is given as 14.1 (±1.1) mmHg. The “effect on steroid-induced IOP elevation” value in the data set with sheep (100 μg in one eye concurrent with prednisolone acetate three times a day) was “prevented IOP elevation”. Moreover, in the data set with sheep (100 μg tPA), the ocular findings result was “Transient injection and corneal clouding was observed in some eyes”. Also, in data set [2] (sheep, after tPA), the MMP1 expression entry is “up-regulates”, the MMP2 expression entry is recorded as “up-regulates”, the MMP9 expression entry is on record as “up-regulates” and the MMP13 expression entry is reported as “up-regulates”. For the same substance, the PAI-1 expression entry in data set [2] (trabecular meshwork (TM) and ciliary processes) is recorded as “up-regulating”. Also, in data set [3], the “expression (FIG. 17C) compared to PA+BSA treated cells” value was “significant upregulation”. In data set [4] (setting [6]), the “Mmp-2 expression compared to BSA treated eyes” value is recorded as “no significant difference” and the “Mmp-9 expression compared to BSA treated eyes” value is reported as “not detected”. Also, the “Mmp-13 expression compared to BSA treated eyes” value in data set [4] (2 days after intravitreal protein, p<0.01) was “significantly higher”. Also, in data set [4] (5 days treatment), the “Mmp-9 expression compared to BSA treated eyes” value is recorded as “higher” and the “Mmp-13 expression compared to BSA treated eyes” value is on record as “significantly higher”. The “Mmp-2 expression compared to BSA treated eyes” value in data set [4] (5 days treatment, p>0.05) is “no significant difference”. Also, the “doses with reported retinal toxicity” value in data set [5] is 50-100 lag.
